Data as given in patent US6410566B1, “Cyclic amine derivatives and their use as drugs” (Teijin Limited, priority 2000, dated 2002).

biological target: T1, binding of human MCP-1 to THP-1 cells (Homo sapiens, UniProt P41597); experiment: Inhibition of binding of [125I]-labeled baculovirus expressed human MCP-1 to THP-1 cells (Method 1); conditions: Method 1, at 10 μM
T1 construct: endogenous in cells; host or cells: THP-1 (human monocytic leukemia cell line), whole cells
T1 sequence (P41597 1-360 isoform P41597-2): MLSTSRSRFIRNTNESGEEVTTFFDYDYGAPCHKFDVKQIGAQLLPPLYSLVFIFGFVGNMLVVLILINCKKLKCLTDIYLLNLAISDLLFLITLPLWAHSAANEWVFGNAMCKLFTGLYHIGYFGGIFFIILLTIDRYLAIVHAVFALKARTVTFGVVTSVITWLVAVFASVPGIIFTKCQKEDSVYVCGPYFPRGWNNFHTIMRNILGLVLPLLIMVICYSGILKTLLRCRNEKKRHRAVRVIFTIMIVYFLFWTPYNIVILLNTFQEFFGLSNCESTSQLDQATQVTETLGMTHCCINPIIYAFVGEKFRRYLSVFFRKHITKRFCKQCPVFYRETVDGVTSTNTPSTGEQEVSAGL
From the text: Measurement of Inhibition of MCP-1 Binding to THP-1 Cells 1. Construction of recombinant baculovirus carrying the human MCP-1 gene Based on the previously published human MCP-1 gene sequence (for example T. Yoshirnura et al., FEBS Lett., 1989, 244, 487-493), two synthetic DNA primers ([NT] and [NT]) flanked by restriction enzyme sites were used to amplify a DNA fragment from cDNA derived from human endothelial cells (purchased from Kurabow Co.); the amplified fragment was cut with the restriction enzymes (PstI and XbaI), ligated into a transfer vector pVL1393 (Invitrogen Co.), and the resulting vector was co-transfected along with infectious baculovirus into Sf-9 insect cells and the supernatant was plaque assayed to yield human MCP-1 gene baculovirus recombinant. […] Using the method of K. Ishii et al. […] The culture supernatant was affinity purified using a heparin Sepharose column (Pharmacia Co.) and then further purified using reverse phase HPLC (Vydac C18 column) to prepare purified human MCP-1. […] 3-1. […] The test. compound was diluted in the assay buffer and used as the test compound solution. [^125I]-labeled human MCP-1 described above was diluted in assay buffer to 1 mCi/mL and used as the labeled ligand solution. In a 96 well filter plate (Millipore Co.), 25 μL of test compound solution, 25 μL of labeled ligand solution and 50 μL of cell suspension were aliquoted into each well in this order, stirred (total reaction volume 100 μL), and incubated for one hour at 18° C. After the reaction, the reaction solution was filtered, and the filter was washed twice with 200 μL of cold PBS (200 μL of cold PBS was added and then filtered). The filter was air-dried and 25 μL of liquid sciatillator was added into each well. The radioactivity retained by the cells on the filter were measured using TopCount (Packard Instrument Co.). To calculate the ability of test compound to inhibit binding of human MCP-1 to THP-1 cells, non-specific binding determined by adding 100 ng of unlabeled human MCP-1 in place of the test compound was subtracted, while the counts with no test compound added was taken as 100%. Inhibition (%)=(1-(A-B)/(C-B))×100 (A, counts with test compound added; B, counts with 100 ng of unlabeled human MCP-1 added; C, counts with [^125I]-labeled human MCP-1 added).

SMILES	inhibition at 10 µM [%]
O=C(CNC(=O)c1cccc(C(F)(F)F)c1)N[C@H]1CCN(Cc2ccccc2)C1 [Compound No. 239, (S)-1-Benzyl-3-[N-{3-(trifluoromethyl)benzoyl}glycyl]aminopyrrolidine]	20 to 50
O=C(CNC(=O)c1ccccc1)NCC1CCCN(Cc2ccc(Cl)cc2)C1 (stereo not drawn) [Compound No. 434, 3-{(N-Benzoylglycyl)amino}methyl-1-(4-chlorobenzyl)piperidine]	50 to 80
Nc1ccc(CN2CCC(CNC(=O)CNC(=O)c3cccc(C(F)(F)F)c3)CC2)cc1 [Compound No. 516, 1-(4-Aminobenzyl)-4-[{N-(3-(trifluoromethyl)benzoyl)glycyl}aminomethyl]piperidine]	20 to 50
O=C(CNC(=O)c1cccc(C(F)(F)F)c1)NCC1CCN(Cc2ccc(NC(=O)c3ccccc3)cc2)CC1 [Compound No. 519, 1-{4-(Benzoylamino)benzyl}-4-[{N-(3-(trifluoromethyl)benzoyl)glycyl}aminomethyl]piperidine]	20 to 50

same assay, conditions: Method 1, at 100 μM

SMILES	inhibition at 100 µM [%]
Cc1cccc(C(=O)NCC(=O)NC2CCCN(Cc3ccc(Cl)cc3)C2)c1 (stereo not drawn) [Compound No. 355, 1-(4-Chlorobenzyl)-3-[{N-(3-methylbenzoyl)glycyl}amino]piperidine]	> 80

biological target: T1, binding of human MCP-1 to THP-1 cells; experiment: Inhibition of binding of [125I]-labeled baculovirus expressed human MCP-1 to THP-1 cells (Method 2); conditions: Method 2, at 1 μM
From the text: 1. Construction of recombinant baculovirus carrying the human MCP-1 gene
Based on the previously published human MCP-1 gene sequence (for example T. Yoshirnura et al., FEBS Lett., 1989, 244, 487-493), two synthetic DNA primers (5′-[…]-3′ and 5′-[…]-3′) flanked by restriction enzyme sites were used to amplify a DNA fragment from cDNA derived from human endothelial cells (purchased from Kurabow Co.); the amplified fragment was cut with the restriction enzymes (PstI and XbaI), ligated into a transfer vector pVL1393 (Invitrogen Co.), and the resulting vector was co-transfected along with infectious baculovirus into Sf-9 insect cells and the supernatant was plaque assayed to yield human MCP-1 gene baculovirus recombinant.
2. Synthesis of [^125I]-labeled human MCP-1 expressed in baculovirus
Using the method of K. Ishii et al. (Biochem Biophys Research Communications, 1995, 206, 955-961), 5×10^6 Sf-6 insect cells was infected with 5×10^7 PFU (plaque forming units) of the above human MCP-1 recombinant baculovirus and cultured for 7 days in Ex-Cell 401 medium. The culture supernatant was affinity purified using a heparin Sepharose column (Pharmacia Co.) and then further purified using reverse phase HPLC (Vydac C18 column) to prepare purified human MCP-1. The purified human MCP-1 was protein labeled by Amersham Co. using the Bolton Hunter method to yield [^125I]-labeled baculovirus expressed human MCP-1 (specific activity 2000 Ci/mmol).
3-2. Measurement of inhibition of binding of [^125I]-labeled baculovirus expressed human MCP-1 to THP-1 cells (Method 2)
Human monocytic leukemia cell line THP-1 was suspended in assay buffer (50 mM HEPES, pH 7.4, 1.0 mM CaCl2, 5.0% mM MgCl2, 0.5% BSA) to give a cell suspension of a concentration of 1×10^7 cells/mL. The test compound was diluted in the assay buffer and used as the test compound solution. [^125I]-labeled human MCP-1 described above was diluted in assay buffer to 1 mCi/mL and used as the labeled ligand solution. In a 96 well filter plate (Millipore Co.), 25 μL of test compound solution, 25 μL of labeled ligand solution and 50 μL of cell suspension were aliquoted into each well in this order, stirred (total reaction volume 100 μL), and incubated for one hour at 18° C.
After the reaction, the reaction solution was filtered, and the filter was washed twice with 200 μL of cold PBS (200 μL of cold PBS was added and then filtered). The filter was air-dried and 25 μL of liquid scintillator was added into each well. The radioactivity retained by the cells on the filter were measured using TopCount (Packard Instrument Co.).
To calculate the ability of test compound to inhibit binding of human MCP-1 to THP-1 cells, non-specific binding determined by adding 100 ng of unlabeled human MCP-1 in place of the test compound was subtracted, while the counts with no test compound added was taken as 100%.
Inhibition (%)={1−(A−B)/(C−B)}×100
(A, counts with test compound added; B, counts with 100 ng of unlabeled human MCP-1 added; C, counts with [^125I]-labeled human MCP-1 added).

SMILES	inhibition at 1 µM [%]
Cc1ccc(C(=O)NCC(=O)N[C@@H]2CCN(Cc3ccc(Cl)cc3)C2)cc1Br [Compound No. 1098, (R)-1-(4-Chlorobenzyl)-3-[{N-(3-bromo-4-methylbenzoyl)glycyl}amino]pyrrolidine]	20 to 50
CCOc1ccc(CN2CCC(CNC(=O)CNC(=O)c3cc(Cl)ccc3N)CC2)cc1 [Compound No. 1429, 4-[{-(2-Amino-5-chlorobenzoyl)glycyl}aminomethyl]-1-(4-ethoxybenzyl)piperidine]	20 to 50
O=C(CNC(=O)c1cccc(C(F)(F)F)c1)NCC1CCN(Cc2ccc(Cl)cc2)C1 (stereo not drawn) [Compound No. 1463, 3-[{N-(3-Trifluoromethylbenzoyl)glycyl}aminomethyl]-1-(4-chlorobenzyl)pyrrolidine]	20 to 50
Nc1cc(F)c(F)cc1C(=O)NCC(=O)NCC1CCN(Cc2ccc(Cl)cc2)C1 (stereo not drawn) [Compound No. 1506, 3-[{N-(2-Amino-4,5-difluorobenzoyl)glycyl}aminomethyl]-1-(4-chlorobenzyl)pyrrolidine]	50 to 80
CS(=O)(=O)Nc1ccc(Br)cc1C(=O)NCC(=O)NCC1CCN(Cc2ccc(Cl)cc2)CC1 [Compound No. 1581, 4-[{N-(5-Bromo-2-(methylsulfonylamino)benzoyl)glycyl}aminomethyl]-1-(4-chlorobenzyl)piperidine]	20 to 50
CS(=O)(=O)N(c1ccc(Br)cc1C(=O)NCC(=O)NCC1CCN(Cc2ccc(Cl)cc2)CC1)S(C)(=O)=O [Compound No. 1582, 4-[{N-(5-Bromo-2-(bis(methylsulfonyl)amino)benzoyl)glycyl}aminomethyl]-1-(4-chlorobenzyl)piperidine]	20 to 50
Nc1ccc(Cl)cc1C(=O)NCC(=O)NCC1CCN(Cc2ccc(SC(F)(F)F)cc2)CC1 [Compound No. 1616, 4-[{N-(2-Amino-5-chlorobenzoyl)glycyl}aminomethyl]-1-{4-(trifluoromethylthio)benzyl}piperidine]	20 to 50
CC(C)c1ccc(CN2CCC(CNC(=O)CNC(=O)c3cc(OC(F)(F)F)ccc3N)CC2)cc1 [Compound No. 1903, 4-[{N-(2-Amino-5-trifluoromethoxybenzoyl)glycyl}aminomethyl]-1-(4-isopropylbenzyl)piperidine]	50 to 80
Nc1ccc(OC(F)(F)F)cc1C(=O)NCC(=O)N[C@@H]1CCN(Cc2ccc(Cl)cc2Cl)C1 [Compound No. 1905, (R)-3-[{N-(2-Amino-5-(trifluoromethoxy)benzoyl)glycyl}amino]-1-(2,4-dichlorobenzyl)pyrrolidine]	50 to 80
Nc1ccc(OC(F)(F)F)cc1C(=O)NCC(=O)NCC1CCN(Cc2ccc(Br)cc2)CC1 [Compound No. 1910, 4-[{N-(2-Amino-5-trifluoromethoxybenzoyl)glycyl}aminomethyl]-1-(4-bromobenzyl)piperidine]	50 to 80
CCOc1ccc(CN2CCC(CNC(=O)CNC(=O)c3cc(F)c(F)cc3N)CC2)cc1OCC [Compound No. 2065, 4-[{N-(2-amino-4,5-difluorobenzoyl)glycyl}aminomethyl]-1-(3,4-diethoxybenzyl)piperidine]	20 to 50
COc1ccc(CN2CCC(CNC(=O)CNC(=O)c3cc(F)c(F)cc3N)CC2)cc1N [Compound No. 2113, 4-[{N-(2-amino-4,5-difluorobenzoyl)glycyl}aminomethyl]-1-(3-amino-4-methoxybenzyl)piperidine]	> 80
Nc1ccc(C(F)(F)F)cc1C(=O)NCC(=O)N[C@@H]1CCN(Cc2ccc(Br)cc2F)C1 [Compound No. 2120, (R)-3-[{N-(2-Amino-5-trifluoromethylbenzoyl)glycyl}amino]-1-(4-bromo-2-fluorobenzyl)pyrrolidine]	> 80
Nc1cc2c(cc1CN1CC[C@@H](NC(=O)CNC(=O)c3cc(C(F)(F)F)ccc3N)C1)OCO2 [Compound No. 2127, (R)-1-(2-Amino-4,5-methylenedioxybenzyl)-3-[{N-(2-amino-5-trifluoromethylbenzoyl)glycyl}amino]pyrrolidine]	> 80
CN(C)c1cc(CN2CC[C@@H](NC(=O)CNC(=O)c3cc(C(F)(F)F)ccc3N)C2)ccc1Cl [Compound No. 2133, (R)-3-[{N-(2-Amino-5-trifluoromethylbenzoyl)glycyl}amino]-1-{4-chloro-3-(dimethylamino)benzyl}pyrrolidine]	> 80
Nc1cc(CN2CC[C@@H](NC(=O)CNC(=O)c3cc(C(F)(F)F)ccc3N)C2)ccc1O [Compound No. 2187, (R)-1-(3-Amino-4-hydroxybenzyl)3-[{N-(2Amino-5-trifluoromethylbenzoyl)glycyl}amino]pyrrolidine]	> 80
